Measured values: patent publication US20060111305A1, “Metabolites of certain [1,4]diazepino[6,7,1-ij]quinoline derivatives and methods of preparation and use thereof” (Wyeth, priority 2004, published 2006)

Columns and labels:
[1] = Metabolites of DCDQ generated by liver microsomes and hepatocytes, LC/MS characterization (Table 6); assay type: in vitro ADME; conditions: MM mouse, RM rat, DM dog, HM human liver microsomes; HH human hepatocytes
Text: An Agilent Model 1100 HPLC system (Agilent Technologies, Palo Alto, Calif.) including an autosampler and diode array UV detector was used for LC/MS analysis. The UV detector was set to monitor 200 to 400 nm. For selected LC/MS analysis, radiochromatograms were acquired using a β-Ram model 3 radioactivity flow detector (IN/US Systems Inc., Tampa, Fla.) equipped with a solid scintillant flow cell. Separations were accomplished on a Phenomenex Luna C18(2) column (2×150 mm, 5 μm) under the same conditions as described above.
The mass spectrometer used for metabolite characterization was a Micromass Q-TOF-2 quadrupole time-of-flight hybrid mass spectrometer ([…].). The mass spectrometer was equipped with an electrospray ionization (ESI) interface and operated in the positive ionization mode. Collision energy settings of 5 and 30 eV were used for full MS and MS/MS scans, respectively. Settings for the mass spectrometer are listed below.
Mass spectra were obtained by LC/MS and LC/MS/MS analysis for DCDQ and its metabolites.

[2] = Metabolite profiles of DCDQ in human plasma and urine by LC/MS (Table 33); assay type: in vivo, healthy human subjects; parameters: key to Matrix (in which DCDQ / metabolite was characterized by LC/MS): P = plasma; U = urine; conditions: for Matrix (in which DCDQ / metabolite was characterized by LC/MS): human plasma and urine, healthy subjects receiving DCDQ
Experimental: Drug administration and specimen collection were performed in a randomized, double-blinded, placebo-controlled, ascending single dose study of the safety, tolerability, pharmacokinetics, and pharmacodynamics of DCDQ administered orally to healthy subjects and subjects with schizophrenia and schizoaffective disorder. The specimens were stored at approximately −70° C. until analysis for metabolite profiles and for ratios of carbamoyl glucuronide (M6) to DCDQ.
Two subjects with medium and high exposure to DCDQ in the 25 mg multiple ascending dose study were also analyzed by LC/MS for metabolite profiles. The 8 hr plasma samples collected on day 1 and day 14 from subjects 9 and 41 were processed and analyzed as described below. No internal standard was added to the samples analyzed for metabolite profiles.
LC/MS System 1 was used for analysis of plasma and urine samples for metabolite characterization. The HPLC equipment used with this LC/MS System consisted of an Agilent Model 1100 HPLC system (Agilent Technologies, Palo Alto, Calif.) including an autosampler, binary pump and diode array UV detector. The UV detector was set to monitor 210 to 350 nm. The HPLC mobile phase consisted of 10 mM ammonium acetate, pH 4.5 (A) and methanol (B), and was delivered at 0.2 mL/min. The linear mobile phase gradient (HPLC Gradient 1) is shown below. During LC/MS sample analysis, up to 6 min of the initial flow was diverted away from the mass spectrometer prior to evaluation of metabolites.
The mass spectrometer used for metabolite characterization with LC/MS System 1 was a Finnigan LCQ-Deca ion trap mass spectrometer (Thermo Electron, San Jose, Calif.). This mass spectrometer was equipped with an electrospray ionization (ESI) interface and operated in the positive ionization mode. Settings for the LCQ mass spectrometer are listed below.
LC/MS System 2 was used to provide additional MS/MS data for characterization of DCDQ metabolites in urine. The HPLC equipment used with LC/MS System 2 consisted of a Waters model 2695 HPLC system (Waters Corp., Milford, Mass.). It was equipped with a built-in autosampler and a model 996 diode array UV detector. The UV detector was set to monitor 210-400 nm. The HPLC column, mobile phases, flow rate, diversion of flow away from the mass spectrometer and gradient were as described above for LC/MS System 1. The column temperature was 25° C.
The mass spectrometer used for metabolite characterization with LC/MS System 2 was a Micromass Quattro Micro triple quadrupole mass spectrometer (Waters Corp.). This mass spectrometer was equipped with an electrospray interface and operated in the positive ionization mode. Settings for this mass spectrometer are listed below.

[3] = Incubation of [14C]DCDQ with dog liver microsomes; assay type: in vitro ADME, beagle dogs
Experimental: (§1) [^14C]DCDQ was mixed with non-radiolabeled DCDQ (1:3 or 1:5) in the incubations. Microsomal incubations consisted of [^14C]DCDQ, magnesium chloride (10 mM) and liver microsomes incubated in 0.5 mL of 0.1 M potassium phosphate buffer, pH 7.4. [^14C]DCDQ (20 μL) in water was added to the incubation tubes containing buffer, magnesium chloride solution and microsomes. After mixing, the tubes were pre-incubated for 2 minutes in a shaking water bath at 37° C. The reactions were initiated by the addition of UDPGA or the NADPH regenerating system. UDPGA was added to incubations as a 50 μL aliquot of a 20 mM solution in water, to give a final concentration of 2 mM. An NADPH regenerating system (30 μL) was added to incubations to evaluate CYP450-mediated metabolism. The NADPH regenerating system consisted of glucose-6-phosphate (2 mg/mL), glucose-6-phosphate dehydrogenase (0.8 units/mL) and NADP^+ (2 mg/mL). Control incubations were conducted under the same conditions, but without the NADPH generating system, UDPGA or microsomes. All incubations were performed in duplicate. Incubations were stopped by the addition of 0.5 mL ice-cold methanol. Samples were vortex-mixed. Denatured proteins were separated by centrifugation at 4300 rpm and 4° C. for 10 minutes (Model T21 super centrifuge, Sorvall). The protein pellets were extracted with 0.5 mL of methanol. The supernatant was combined for each sample, mixed and evaporated to a volume of about 0.3 mL under a nitrogen stream in a Zymark TurboVap LV evaporator (Caliper Life Science, Hopkinton, Mass.). The concentrated sample was centrifuged and aliquots were radioassayed and analyzed by HPLC. This method recovered an average of 92.1% of the radioactivity from the reaction mixture.
(§2) To evaluate species differences in cytochrome P450- and UGT-mediated metabolism, [^14C]DCDQ was incubated for 20 minutes with 0.5 mg/mL liver microsomal proteins from mice, rats, dogs or humans in the presence of the NADPH regenerating system or UDPGA. The assay conditions were the same as described above, and DCDQ concentrations were 12 μM and 56 μM for cytochrome P450- and UGT-mediated metabolism, respectively.
(§3) A Waters model 2690 HPLC system (Waters Corp., Milford, Mass.) with a built-in autosampler was used for analysis. Separations were accomplished on a Phenomenex Luna C18(2) column (2×150 mm, 5 μm) (Phenomenex, Torrance, Calif.) coupled with a filter (4×2 mm) cartridge. A variable wavelength UV detector set to monitor 250 nm and Flo-One β Model A525 radioactivity flow detector (Perkin Elmer) with a 250 μL LQTR flow cell were used for data acquisition. The flow rate of Ultima Flow M scintillation fluid was 1 mL/min, providing a mixing ratio of scintillation cocktail to mobile phase of 5:1. […]

[4] = Incubation of [14C]DCDQ with rat liver microsomes; assay type: in vitro ADME, Sprague Dawley rats
Experimental: as §1, §2, §3

[5] = Incubation of [14C]DCDQ with mouse liver microsomes; assay type: in vitro ADME, CD-1 mice
Experimental: as §1, §2, §3

[6] = NADPH regenerating system, 12 μM DCDQ, 20 min

Row | Source [1] | Matrix (in which DCDQ / metabolite was characterized by LC/MS) [2] | metabolite detected in microsomal incubation [3, 6] | metabolite detected in microsomal incubation [4, 6] | metabolite detected in microsomal incubation [5, 6] | metabolite detected in microsomal incubation ([3]; UDPGA, 56 μM DCDQ) | metabolite detected in microsomal incubation ([4]; UDPGA, 56 μM DCDQ) | metabolite detected in microsomal incubation ([5]; UDPGA, 56 μM DCDQ) | relative abundance in human plasma ([2]; all dose groups, single and multiple dose studies) | relative abundance in human urine ([2]; in vivo) | Structure (SMILES)
1 | HM, HH | P, U | not detected | not detected | not detected | – | – | – | – | – | OC1CN2C[C@@H]3CCC[C@@H]3c3cccc(c32)CN1 (some centres unmarked) [Metabolite M1, hydroxy DCDQ]
2 | MM, RM, DM, HM, HH | – | observed | observed | only metabolite detected | – | – | – | – | – | OC1[C@@H]2CCC[C@@H]2c2cccc3c2N1CCNC3 (some centres unmarked) [Metabolite M2, hydroxy DCDQ]
3 | DM, HM, HH | P | detected | not mouse or rat | not mouse or rat | – | – | – | – | – | [O-][N+]12CCN=Cc3cccc(c31)[C@H]1CCC[C@H]1C2 (some centres unmarked) [Metabolite M5, DCDQ imine N-oxide]
4 | DM, HM, HH | P, U | – | – | – | detected | not mouse or rat | not mouse or rat | predominant drug-related component | predominant drug-related component | O=C(O)[C@H]1O[C@@H](OC(=O)N2CCN3C[C@@H]4CCC[C@@H]4c4cccc(c43)C2)[C@H](O)[C@@H](O)[C@@H]1O [Metabolite M6, carbamoyl glucuronide of DCDQ]

Row | Structure (SMILES) | Source [1] | Matrix (in which DCDQ / metabolite was characterized by LC/MS) [2] | metabolite detected in microsomal incubation [3, 6] | metabolite detected in microsomal incubation [4, 6] | metabolite detected in microsomal incubation [5, 6] | metabolite detected in microsomal incubation ([3]; UDPGA, 56 μM DCDQ) | metabolite detected in microsomal incubation ([4]; UDPGA, 56 μM DCDQ) | metabolite detected in microsomal incubation ([5]; UDPGA, 56 μM DCDQ) | relative abundance in human plasma ([2]; all dose groups, single and multiple dose studies) | relative abundance in human urine ([2]; in vivo)
5 | c1cc2c3c(c1)[C@H]1CCC[C@H]1CN3CCNC2 [DCDQ, (9aR,12aS)-4,5,6,7,9,9a,10,11,12,12a-decahydro-cyclopenta[c][1,4]diazepine[6,7,1-ij]quinoline, reference compound] | MM, RM, DM, HM, HH | P, U | – | – | – | – | – | – | – | –
